The values that follow come from patent publication US9458100B2, “Synthesis and growth regulatory activity of a prototype member of a new family of aminothiol radioprotectors” (Wisconsin Alumni Research Foundation, priority 2012, dated 2016).

As usually defined, the Tmax is the time from dosing to the highest level.

In data set [1] the test system is mouse. Nature of the data set: Systemic toxicity, maximum tolerated dose in mouse. In kind it is in vivo. The following applies: for Mouse IP MTD: intraperitoneal. The method, then:
(§1) During the development of embodiments of the technology provided herein, embodiments of compounds described herein and/or encompassed by the synthetic schemes were tested for systemic toxicity and radioprotection in mouse and rat models (Table 2). Toxic doses are shown as the “maximum tolerated dose” (“MTD”) for intraperitoneal (IP), oral, and subcutaneous (SC) administration routes in Table 2.
(§2) Doses expressed as a fraction of “MTD” are expressed as a fraction of the “maximum tolerated dose”. Doses expressed in units of ug/g correspond to micrograms of the compound per gram of body weight.

Data set [2] deals with mice exposed to whole-body radiation. Nature of the data set: Mouse survival after whole-body radiation (systemic radioprotection). The class given is in vivo. The following applies: for Mouse % Survival: 8.63 Gy whole-body radiation. The method, then:
Exposure of a control mouse to the same dose of radiation in the absence of PrC-210 administration (e.g., a water-only control) is 100% lethal (FIG. 4, “IP Water”). Each treatment group contained 20 mice. The dose of PrC-210 was 252 μg/g body weight.
In additional experiments, female ICR mice received 200 μl doses (e.g., 900 μg/g body weight) of PrC-210 dissolved in water by gavage at the indicated times prior to irradiation (See FIG. 6). At 0 min, mice were irradiated with 9.0 Gy of whole-body radiation in a CS^137 irradiator. Mice were returned to housing and their weights and survival were monitored for the next 60 days. There were six mice in each of the treatment groups.
[…] Survival rates greater than the 0% Survival seen in the vehicle control group were attributed to systemic radioprotection conferred by the systemically administered radioprotector molecule.

The test system of data set [3] is mouse. The following applies: intraperitoneal; published value; cited from earlier work.
Data set [4] has as its system ferret. Nature of the data set: Ferret retch/emesis model. In kind it is in vivo.
Data set [5] deals with rat. Briefly: Systemic toxicity, maximum tolerated dose in rat. In kind it is in vivo. The method, then: as §1, §2
The test system of data set [6] is rat. Briefly: Rat aortic blood pressure monitoring (hypotension side effect). The class given is in vivo. The following applies: anesthetized rats, intraperitoneal injection. The method, then:
Blood pressure was monitored in the aortic artery of rats using a high-fidelity pressure transducer. Rats were continually anesthetized with 2% isofluorane, and drug doses were administered by intraperitoneal injection. Rats received intraperitoneal saline injections until these injections induced no change in monitored blood pressure. Indicated doses of PrC-210 or amifostine (FIG. 8) were administered and changes in blood pressure and heart rate were recorded. A condensed summary of drug-induced changes for all cannulated rats is shown in panel C. Doses of epinephrine (Epi; hypertensive) were also recurrently admininesterod to test if previous PrC-210 or amifostine doses could be modified.

Data set [7] can be described thus: Biodistribution of intravenous bolus of 14C PrC-210 in rat. The class given is in vivo. The method, then:
During the development of embodiments of the technology provided herein, experiments were conducted to test the biodistribution of an intravenous bolus dose of radiolabeled (e.g., ^14C) PrC-210 in a rat host. In these experiments, an intravenous bolus of 100 μCi of ^14C PrC-210 was administered into an indwelling catheter in a 300 g rat.

Data set [8] has as its system radiation dermatitis in rat skin. Nature of the data set: Rat radiation dermatitis assay with topical application before irradiation. The class given is in vivo. The following applies: topical in ethanol/water vehicle four times in the 2 h before 17.33 Gy; scored 13 days later. The method, then: To determine if PrC-210 could function as a topical radioprotector that could prevent radiation dermatitis when applied prior to a cancer patient's daily radiotherapy, a rat assay that realistically mimics human radiation dermatitis was created. This assay quantifies the severity of radiation dermatitis in rat skin 13 days after a single radiation dose of 17.33 Gy. In this study, PrC-210 was applied to rat skin in an ethanol/water delivery vehicle four times in the 2 h before irradiation, and control rats received only topical vehicle before irradiation (FIG. 2). Additional drug/irradiation groups of three rats each received either the alkyl-thiol moiety or the alkyldiamine moiety from PrC-210 in the same delivery vehicle. Following the 17.33 Gy irradiation of a […] patch of dorsal skin on the rats' backs, rats were scored 13 days later.
Molecules were applied to skin in an alcohol/water delivery vehicle prior to receiving a 17.33 Gy radiation dose to the 1.5 cm×3.0 cm skin site. Radiation dermatitis severity (e.g., % of the site covered by scab material) was scored 13 days following irradiation.

Data set [9] relates to rats exposed to whole-body radiation. Nature of the data set: Rat survival after whole-body radiation (oral radioprotection). The class given is in vivo. The method, then:
Female Sprague-Dawley rats received 200 μl doses of PrC-210 dissolved in water by gavage a time of 60 minutes prior to irradiation (time=−60 min). […] Rats were returned to housing and their weights and survival were monitored for the next 60 days. There were six rats in each of the treatment groups. As shown by FIG. 5, oral PrC-210 confers 100% protection against an otherwise 100% lethal dose of whole-body radiation.

Where two headings read alike, the source gives them in different places. Marks after values point to notes of the source that are not given here. Bounds are passed on as bounds.

As for `NCCCNCCSP(=O)(O)O` [Amifostine, amifostine, reference compound], the “Mouse IP MTD” value in [1] was 760^d μg/g b.w; in data set [3] it was 800^c μg/g b.w. Moreover, in data set [2] (at IP 0.5 MTD: 400 ug/g), the “Mouse % Survival” value is recorded as 88%. Besides, the retch/emesis responses entry in [4] (in vivo) is “caused retch/emesis responses in each of the four ferrets tested”.

For the compound `CN(C)C(=O)C(CCN1CCC(O)(c2ccc(Cl)cc2)CC1)(c1ccccc1)c1ccccc1` [Loperamide], in data set [4] (ferret equivalent of highest human dose, loperamide as positive control 14 days later), the retch/emesis responses entry is “robust retch/emesis response in each of the 14 ferrets”.

Regarding `CNCC(CNC)CSSCC(CNC)CNC` [PrC-210 Disulfide], in data set [1], the “Mouse IP MTD” value is 155 μg/g b.w. The “Mouse % Survival” value in data set [2] (at IP 0.5 MTD: 78 ug/g) is recorded as below 5%; in data set [2] (at IP 0.9 MTD: 140 ug/g), 37%.

Regarding `CNCC(CS)CNC` [PrC-210, 3-(methyl-amino)-2-((methylamino)methyl)propane-1-thiol], the “Mouse IP MTD” value is reported as 422^b μg/g b.w in data set [1] (determined using best fit analysis of survival data) and 504^a μg/g b.w in [1] (determined using probit analysis of survival data). Besides, the “Mouse ORAL MTD” value in data set [1] (oral) is 1780 μg/g b.w. The “Mouse SC MTD” value in [1] (subcutaneous) stood at 431 μg/g b.w. For the same compound, the “Rat IP MTD” value in data set [5] (intraperitoneal) is reported as 485 μg/g b.w. Moreover, the “Rat ORAL MTD” value in [5] (oral) was found to be 1974 μg/g b.w. Moreover, the “Mouse % Survival” value was determined as 98% in data set [2] (at IP 0.5 MTD: 211 ug/g), 100% in [2] (at IP 0.5 MTD: 252 ug/g) and 100% in data set [2] (at ORAL 0.87 MTD: 1550 ug/g (only dose tested)). Besides, the “protection against otherwise 100% lethal whole-body radiation” value in [2] (female ICR mice, oral 900 μg/g body weight, 60 minutes before 9.0 Gy) stood at 100%; in data set [9] (female Sprague-Dawley rats, oral gavage 60 minutes prior, monitored 60 days) it was 100%. This compound also registered a survival in data set [2] (mouse, IP 252 μg/g body weight, 30 minutes before 8.75 Gy whole-body radiation) of 100%. Also, the hypotension side effects entry in data set [6] was “does not cause hypotension side effects”. Also, the “Recovery (carcass)” value in [7] (100 uCi IV) amounted to 6.89%. The Cmax in [7] (100 uCi IV 14C PrC-210) is 21,400 ng-eq/g. The Tmax in data set [7] (100 uCi IV 14C PrC-210) is 30 min. Further, the “Recovery2 (systemic)” value in data set [7] (100 uCi IV, excreta + carcass) stood at 81.23%. The “Recovery3 (total)” value in data set [7] (100 uCi IV, systemic + skin + cage wash + cage wipe + enclosure) is given as 84.20%. Further, in [7] (100 uCi IV, urine + urine wipes + feces), the “Recovery1 (excreta)” value is 74.34%. Also, in data set [7] (intravenous 14C PrC-210), the “administered radioactivity eliminated via feces” value was “approximately 10%”. Also, the “administered radioactivity eliminated via urine” value in data set [7] (intravenous 14C PrC-210) is listed as “approximately 50%”. Also, in [8], the “prevention of radiation dermatitis” value is “completely prevent radiation dermatitis”. Moreover, the “Rat % Survival” value in data set [9] (at ORAL 0.5 MTD: 900 ug/g, 9.5 Gy whole-body radiation) was 100% (at ORAL 0.5 MTD: 900 ug/g). The retch/emesis responses entry in data set [4] (in vivo) was “zero retching or emesis responses”.

As for `NCC(CN)CS` [PrC-211], the “Mouse IP MTD” value in [1] came to 475 μg/g b.w. Further, the results for the “Mouse % Survival” value in data set [2] (at IP 0.25 MTD: 118 ug/g), in [2] (at IP 0.5 MTD: 238 ug/g) and in data set [2] (at IP 0.9 MTD: 427 ug/g) were 37%, 47% and 100%, respectively.
